{"source": "paper PMC3914206", "assay_type_in_all_cases": "binding", "set-up_in_all_cases": "KINOMEscan: ABL1(F317L)-phosphorylated / KINOMEscan: ABL1(H396P)-nonphosphorylated / KINOMEscan: ABL1(H396P)-phosphorylated / KINOMEscan: ABL1(M351T)-phosphorylated / KINOMEscan: ABL1(T315I)-phosphorylated / KINOMEscan: ABL1-nonphosphorylated / KINOMEscan: ABL1-phosphorylated / KINOMEscan: ACVR2A / KINOMEscan: ACVR2B / KINOMEscan: ADCK3 / KINOMEscan: ADCK4 / KINOMEscan: AKT1 / KINOMEscan: AKT3 / KINOMEscan: ALK / KINOMEscan: ARK5 / KINOMEscan: AURKA / KINOMEscan: AURKC / KINOMEscan: BIKE / KINOMEscan: BMPR1A / KINOMEscan: BMPR1B / KINOMEscan: BMX / KINOMEscan: BRK / KINOMEscan: BRSK1 / KINOMEscan: BRSK2 / KINOMEscan: CAMK1 / KINOMEscan: CAMK1D / KINOMEscan: CAMK1G / KINOMEscan: CAMK2A / KINOMEscan: CAMK2B / KINOMEscan: AAK1 / KINOMEscan: CAMK2D / KINOMEscan: CAMK2G / KINOMEscan: ABL1(F317I)-nonphosphorylated / KINOMEscan: ABL1(F317I)-phosphorylated / KINOMEscan: ABL1(F317L)-nonphosphorylated: unit: % Ctrl", "conditions_in_all_cases": "Compound Concentration 10 µM", "key": {"panel of 442 kinases [1]": {"target": "T1, panel of 442 kinases (Homo sapiens, UniProt Q96NX5)", "T1 construct": "purchased KINOMEscan", "T1 sequence (Q96NX5 whole entry)": "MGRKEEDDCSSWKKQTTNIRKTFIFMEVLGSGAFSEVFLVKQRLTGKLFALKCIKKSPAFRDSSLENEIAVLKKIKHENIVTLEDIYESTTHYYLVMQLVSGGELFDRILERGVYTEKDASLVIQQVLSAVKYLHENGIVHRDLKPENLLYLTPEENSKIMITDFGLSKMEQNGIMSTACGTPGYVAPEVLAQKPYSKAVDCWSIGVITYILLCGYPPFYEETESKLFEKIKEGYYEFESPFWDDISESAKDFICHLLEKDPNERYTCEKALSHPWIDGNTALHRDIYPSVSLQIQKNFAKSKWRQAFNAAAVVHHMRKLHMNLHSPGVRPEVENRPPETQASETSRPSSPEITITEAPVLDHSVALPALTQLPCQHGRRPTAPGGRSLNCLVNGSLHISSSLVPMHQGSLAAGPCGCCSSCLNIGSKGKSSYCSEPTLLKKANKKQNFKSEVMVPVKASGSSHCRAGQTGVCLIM", "excerpt": "(§1) We assessed the selectivity of members of this scaffold using the KINOMEscan methodology across a near comprehensive panel of 442 kinases [[18,27]]."}, "panel of 442 kinases [2]": {"target": "T2, panel of 442 kinases (Homo sapiens, UniProt P08922)", "T2 construct": "purchased KINOMEscan", "T2 sequence (P08922 28-2347)": "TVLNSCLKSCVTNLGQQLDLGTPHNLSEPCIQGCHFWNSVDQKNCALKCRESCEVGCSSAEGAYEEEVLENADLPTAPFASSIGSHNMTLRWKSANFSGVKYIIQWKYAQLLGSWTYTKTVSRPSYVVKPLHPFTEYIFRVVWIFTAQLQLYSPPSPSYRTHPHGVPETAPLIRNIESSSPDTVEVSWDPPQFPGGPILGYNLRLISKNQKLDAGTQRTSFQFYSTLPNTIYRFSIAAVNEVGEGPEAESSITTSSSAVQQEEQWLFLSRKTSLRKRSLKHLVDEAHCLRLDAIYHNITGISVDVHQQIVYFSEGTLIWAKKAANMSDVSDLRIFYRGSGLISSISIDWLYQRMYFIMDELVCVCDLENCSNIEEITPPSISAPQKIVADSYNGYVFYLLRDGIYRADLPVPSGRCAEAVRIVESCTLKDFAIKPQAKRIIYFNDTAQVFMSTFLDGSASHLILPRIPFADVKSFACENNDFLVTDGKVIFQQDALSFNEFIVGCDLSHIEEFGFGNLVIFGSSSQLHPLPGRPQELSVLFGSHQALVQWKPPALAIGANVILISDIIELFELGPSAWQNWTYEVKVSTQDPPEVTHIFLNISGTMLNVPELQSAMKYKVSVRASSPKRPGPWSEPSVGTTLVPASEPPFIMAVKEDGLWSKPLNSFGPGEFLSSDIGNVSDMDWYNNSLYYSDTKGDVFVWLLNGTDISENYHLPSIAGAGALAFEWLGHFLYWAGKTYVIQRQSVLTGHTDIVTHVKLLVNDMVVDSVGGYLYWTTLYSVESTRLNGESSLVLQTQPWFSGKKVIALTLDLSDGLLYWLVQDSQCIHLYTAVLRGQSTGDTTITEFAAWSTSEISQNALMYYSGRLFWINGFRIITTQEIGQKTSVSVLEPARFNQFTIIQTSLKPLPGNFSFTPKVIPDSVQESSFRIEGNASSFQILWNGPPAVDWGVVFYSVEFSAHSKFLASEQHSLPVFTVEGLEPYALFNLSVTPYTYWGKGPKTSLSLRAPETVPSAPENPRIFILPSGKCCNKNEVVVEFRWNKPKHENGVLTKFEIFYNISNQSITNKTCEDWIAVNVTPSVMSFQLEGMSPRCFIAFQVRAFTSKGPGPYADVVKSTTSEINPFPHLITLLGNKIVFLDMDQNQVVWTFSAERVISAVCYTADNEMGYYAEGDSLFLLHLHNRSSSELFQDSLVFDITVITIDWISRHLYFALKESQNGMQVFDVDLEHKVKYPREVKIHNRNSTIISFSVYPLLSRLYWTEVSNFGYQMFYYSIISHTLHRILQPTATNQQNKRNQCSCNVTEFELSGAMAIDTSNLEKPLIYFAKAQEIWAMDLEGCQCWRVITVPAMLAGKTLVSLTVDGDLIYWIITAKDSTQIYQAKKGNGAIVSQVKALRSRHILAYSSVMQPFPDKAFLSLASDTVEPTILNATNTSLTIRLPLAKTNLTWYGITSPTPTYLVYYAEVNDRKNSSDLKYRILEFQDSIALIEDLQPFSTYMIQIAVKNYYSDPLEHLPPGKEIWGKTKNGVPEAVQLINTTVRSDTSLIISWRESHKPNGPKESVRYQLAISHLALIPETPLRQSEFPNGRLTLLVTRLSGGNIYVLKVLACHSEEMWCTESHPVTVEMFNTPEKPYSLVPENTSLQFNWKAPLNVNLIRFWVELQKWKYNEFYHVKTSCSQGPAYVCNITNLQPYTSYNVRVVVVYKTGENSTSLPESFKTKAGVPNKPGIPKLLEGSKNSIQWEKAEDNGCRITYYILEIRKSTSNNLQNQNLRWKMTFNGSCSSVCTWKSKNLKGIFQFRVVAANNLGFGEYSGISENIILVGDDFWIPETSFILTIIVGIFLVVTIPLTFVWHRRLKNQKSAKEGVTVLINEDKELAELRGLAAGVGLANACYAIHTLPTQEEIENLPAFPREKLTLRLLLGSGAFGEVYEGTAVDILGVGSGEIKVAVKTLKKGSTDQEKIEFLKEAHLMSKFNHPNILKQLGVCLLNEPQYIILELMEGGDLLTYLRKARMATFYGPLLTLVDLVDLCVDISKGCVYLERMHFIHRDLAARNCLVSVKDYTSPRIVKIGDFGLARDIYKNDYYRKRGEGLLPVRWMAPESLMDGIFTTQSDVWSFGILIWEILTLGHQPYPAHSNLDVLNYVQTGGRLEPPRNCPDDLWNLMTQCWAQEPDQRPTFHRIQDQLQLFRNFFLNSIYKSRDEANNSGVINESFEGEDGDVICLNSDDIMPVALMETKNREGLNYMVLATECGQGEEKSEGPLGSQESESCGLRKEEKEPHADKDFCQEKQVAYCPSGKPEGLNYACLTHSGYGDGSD", "excerpt": "as §1"}, "panel of 442 kinases [3]": {"target": "T3, panel of 442 kinases (Homo sapiens, UniProt P19525)", "T3 construct": "purchased KINOMEscan", "T3 sequence (P19525 whole entry)": "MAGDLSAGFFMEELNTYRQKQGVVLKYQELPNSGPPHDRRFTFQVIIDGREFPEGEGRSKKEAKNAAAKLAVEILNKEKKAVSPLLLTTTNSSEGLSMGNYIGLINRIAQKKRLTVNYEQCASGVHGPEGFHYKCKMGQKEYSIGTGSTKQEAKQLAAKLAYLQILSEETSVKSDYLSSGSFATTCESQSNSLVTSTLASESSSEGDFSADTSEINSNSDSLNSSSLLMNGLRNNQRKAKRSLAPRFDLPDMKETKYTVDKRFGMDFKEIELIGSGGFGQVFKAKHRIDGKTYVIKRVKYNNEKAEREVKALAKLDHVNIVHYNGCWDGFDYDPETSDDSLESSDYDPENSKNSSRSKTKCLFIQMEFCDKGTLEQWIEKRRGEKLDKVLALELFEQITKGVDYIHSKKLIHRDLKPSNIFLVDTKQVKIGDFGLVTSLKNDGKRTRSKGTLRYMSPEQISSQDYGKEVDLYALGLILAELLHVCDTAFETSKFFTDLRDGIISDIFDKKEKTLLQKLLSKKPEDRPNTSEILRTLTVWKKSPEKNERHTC", "excerpt": "as §1"}}, "data": [{"compound": "COc1cc(C(=O)N2CCC(N3CCN(C)CC3)CC2)ccc1Nc1ncc2c(n1)N(C)c1ccccc1C(=O)N2C", "note": "[15 (LRRK2-IN-1)]", "values": [{"measurement": "KINOMEscan: CAMK1G", "setting": "panel of 442 kinases [1]", "result": 74}, {"measurement": "KINOMEscan: ROS1", "setting": "panel of 442 kinases [2]", "result": 12}, {"measurement": "KINOMEscan: PRKR", "setting": "panel of 442 kinases [3]", "result": 84}]}, {"compound": "COc1cc(C(=O)N2CCC(N3CCN(C)CC3)CC2)ccc1Nc1ncc2c(n1)N1CCc3cccc(c31)C(=O)N2C", "note": "[Compound 24]", "values": [{"measurement": "KINOMEscan: CAMK1G", "setting": "panel of 442 kinases [1]", "result": 56}, {"measurement": "KINOMEscan: ROS1", "setting": "panel of 442 kinases [2]", "result": 24}, {"measurement": "KINOMEscan: PRKR", "setting": "panel of 442 kinases [3]", "result": 33}]}, {"compound": "COc1cc(C(=O)N2CCC(N3CCN(C)CC3)CC2)ccc1Nc1ncc2c(n1)N(C1CCCC1)c1ccccc1C(=O)N2C", "note": "[Compound 25, 11-cyclopentyl-2-((2-methoxy-4-(4-(4-methylpiperazin-1-yl)piperidine-1-carbonyl)phenyl)amino)-5-methyl-5H-benzo[e]pyrimido[5,4-b][1,4]diazepin-6(11H)-one]", "values": [{"measurement": "KINOMEscan: CAMK1G", "setting": "panel of 442 kinases [1]", "result": 90}, {"measurement": "KINOMEscan: ROS1", "setting": "panel of 442 kinases [2]", "result": 3.4}, {"measurement": "KINOMEscan: PRKR", "setting": "panel of 442 kinases [3]", "result": 71}]}, {"compound": "CCOc1cc(C(=O)N2CCC(N3CCN(C)CC3)CC2)ccc1Nc1ncc2c(n1)N(C1CCCC1)c1ccccc1C(=O)N2C", "note": "[Compound 26]", "values": [{"measurement": "KINOMEscan: CAMK1G", "setting": "panel of 442 kinases [1]", "result": 95}, {"measurement": "KINOMEscan: ROS1", "setting": "panel of 442 kinases [2]", "result": 20}, {"measurement": "KINOMEscan: PRKR", "setting": "panel of 442 kinases [3]", "result": 97}]}]}
